Non-standard residues stand in square brackets, D forms with d. Residues, ends and D or L forms follow the SMILES beside them. No end group written: not given here. *: point of attachment. Hydrocinnamoyl = O=C(CCc1ccccc1)*; Nle = CCCC[C@H](N)C(=O)O
Columns and labels:
PTH1R receptor [1] = biological target: T1, PTH1R receptor (Homo sapiens, UniProt Q03431); test: bone-based assays; type: binding; conditions: bon-based assay
T1 sequence (Q03431 27-593): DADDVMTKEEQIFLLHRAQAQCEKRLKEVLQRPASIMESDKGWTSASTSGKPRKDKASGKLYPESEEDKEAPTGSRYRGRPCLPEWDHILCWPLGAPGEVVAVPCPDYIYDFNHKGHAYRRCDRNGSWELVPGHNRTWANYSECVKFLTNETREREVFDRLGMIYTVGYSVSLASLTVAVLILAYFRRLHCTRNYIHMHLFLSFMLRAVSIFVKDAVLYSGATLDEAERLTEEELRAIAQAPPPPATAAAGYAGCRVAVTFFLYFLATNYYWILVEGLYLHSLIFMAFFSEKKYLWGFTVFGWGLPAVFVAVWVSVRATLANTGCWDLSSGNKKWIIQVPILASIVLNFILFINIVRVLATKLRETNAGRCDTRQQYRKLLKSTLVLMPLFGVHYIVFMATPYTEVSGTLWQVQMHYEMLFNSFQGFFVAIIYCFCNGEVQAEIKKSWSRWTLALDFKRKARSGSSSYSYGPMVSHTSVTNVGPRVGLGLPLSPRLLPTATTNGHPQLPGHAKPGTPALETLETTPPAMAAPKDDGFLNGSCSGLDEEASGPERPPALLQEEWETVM

PTH1R receptor [2] = biological target: T1, PTH1R receptor; test: kidney-based assays; type: binding; conditions: kidney-based assay
PTH1R receptor [3] = biological target: T1, PTH1R receptor; test: potency of inverse agonist peptides (assay not specified)
[4] = biological target: T2, Type I PTH/PTHrP receptor (PTH1R receptor); test: kidney-based assay
T2 chain: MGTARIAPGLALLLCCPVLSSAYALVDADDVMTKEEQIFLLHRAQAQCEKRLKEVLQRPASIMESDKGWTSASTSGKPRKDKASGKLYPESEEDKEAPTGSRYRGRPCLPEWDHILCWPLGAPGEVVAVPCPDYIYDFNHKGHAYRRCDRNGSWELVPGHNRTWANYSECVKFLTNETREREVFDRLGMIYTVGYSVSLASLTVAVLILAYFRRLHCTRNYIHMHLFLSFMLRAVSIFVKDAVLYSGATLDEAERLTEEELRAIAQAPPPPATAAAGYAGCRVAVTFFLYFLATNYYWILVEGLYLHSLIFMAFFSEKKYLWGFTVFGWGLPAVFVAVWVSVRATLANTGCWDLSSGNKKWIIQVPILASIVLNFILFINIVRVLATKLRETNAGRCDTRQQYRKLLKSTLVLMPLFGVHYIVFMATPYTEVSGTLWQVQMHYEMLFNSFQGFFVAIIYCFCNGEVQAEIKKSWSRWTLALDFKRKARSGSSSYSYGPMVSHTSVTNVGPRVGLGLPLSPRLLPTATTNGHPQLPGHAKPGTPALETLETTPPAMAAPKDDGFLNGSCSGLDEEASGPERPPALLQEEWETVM

[5] = biological target: T2, Type I PTH/PTHrP receptor (PTH1R …); test: bone-based assay

For `CCCC[C@H](NC(=O)[C@H](CO)NC(=O)[C@H](CO)NC(=O)[C@H](CC(C)C)NC(=O)[C@H](Cc1c[nH]cn1)NC(=O)[C@H](CCCCNC(=O)CCc1ccccc1)NC(=O)CNC(=O)[C@H](CC(C)C)NC(=O)[C@H](CC(N)=O)NC(=O)[C@H](Cc1c[nH]cn1)NC(=O)[C@H](CCCC)NC(=O)[C@@H](N)Cc1ccccc1)C(=O)N[C@@H](CCC(=O)O)C(=O)N[C@@H](CCCNC(=N)N)C(=O)N[C@H](C(=O)N[C@@H](CCC(=O)O)C(=O)N[C@@H](Cc1c[nH]c2ccccc12)C(=O)N[C@@H](CC(C)C)C(=O)N[C@@H](CCCNC(=N)N)C(=O)N[C@@H](CCCCN)C(=O)N[C@@H](CCCCN)C(=O)N[C@@H](CC(C)C)C(=O)N[C@@H](CCC(N)=O)C(=O)N[C@@H](CC(=O)O)C(=O)N[C@H](C(=O)N[C@@H](Cc1c[nH]cn1)C(=O)N[C@@H](CC(N)=O)C(=O)N[C@@H](Cc1ccc(O)cc1)C(=O)O)C(C)C)C(C)C` (H-F[Nle]HNLGK(Hydrocinnamoyl)HLSS[Nle]ERVEWLRKKLQDVHNY-OH; N-terminus and C-terminus assumed), the Ki (PTH1R receptor [1]) was 3.5 nM, the Kd (PTH1R receptor [1]; read-out: Kbinding) was 9 nM and the Ki (PTH1R receptor [2]) was 73 nM. For the same molecule, the Kd (PTH1R receptor [2]; read-out: Kbinding) was 4 nM.

For “Leu-Leu-His-Asn-Leu-Gly-Lys-Ser-Ile-Gln-Asp-Leu-Arg-Arg-Arg-Phe-Phe-Leu-His-His-Leu-Ile-Ala-Glu-Ile-His-Thr-Ala-NH2 (LLHNLGKSIQDLRRRFFLHHLIAEIHTA-NH2)”, the “fold more potent than PTHrP 7-34” value (PTH1R receptor [3]; relative to PTHrP 7-34) was “(which is 23 fold more potent than PTHrP 7-34);”.

For “Leu-Leu-His-Asp-Leu-D-Trp-Lys(cyclization)-Ser-Ile-Gln-Asp(cyclization)-Leu-Arg-Arg-Arg-Phe-Phe-Leu-His-His-Leu-Ile-Ala-Glu-Ile-His-Thr-Ala-NH2”, the potency (PTH1R receptor [3]) was “increased potency”.

B1: Phe-Nle-His-Asn-Leu-Gly-Lys-(epsilon-3-phenylpropanoyl)-His-Leu-Ser-Ser-Nle-Glu-Arg-Val-Glu-Trp-Leu-Arg-Lys-Lys-Leu-Gln-Asp-Val-His-Asn-Tyr (peptide)
peptide: FXHNLGKHLSSXERVEWLRKKLQDVHNY
modifications: Nle (norleucine) at peptide positions 2 and 12 (written X in letters); Lys at peptide position 7 carries epsilon-3-phenylpropanoyl
B1 was tested, and the Ki [4] was 73 nM and the Ki [5] was 3.5 nM.
